In patent US20210205260A1, “MP53 RESCUE COMPONDS AND METHODS OF TREATING A P53 DISORDER” (priority 2018, published 2021):

Legend:
[1] = Representative effective dose for mouse studies (Table 15); format: in vivo; conditions: oral
Description: The PANDA Agent comprising a three and/or five valence arsenic is generally effective in treating cancer in a subject, including an animal, at a dose at a wide range of dosages by intravenous injection and oral administration. In certain embodiments, the daily dosage is from about 0.5 mg/kg to about 50 mg/kg, preferably from about 0.5 mg/kg to about 25 mg/kg, more preferably from about 1 mg/kg to about 25 mg/kg, more preferably from about 1 mg/kg to about 15 mg/kg, more preferably from about 1.7 mg/kg to about 15 mg/kg, and more preferably from about 1.7 mg/kg to about 5 mg/kg. In certain embodiments, the dose is about 5 mg/kg. In certain embodiments, the PANDA Agent ATO is administered by intravenous injection or by oral administration at 1 mg/ml concentration, at a dose of 5 mg/kg per day.
In other embodiments, the daily dosage is from about 10 mg/kg to about 1000 mg/kg, preferably from about 10 mg/kg to about 500 mg/kg, more preferably from about 20 mg/kg to about 500 mg/kg, more preferably from about 20 mg/kg to about 300 mg/kg, more preferably from about 33 mg/kg to about 300 mg/kg, and more preferably from about 33 mg/kg to about 100 mg/kg. In certain embodiments, the dose is about 100 mg/kg. In certain embodiments, the PANDA Agent As2S2, As2S3, As2S5, and As4S4 is administered by oral administration at 15 mg/L concentration, at a dose of 100 mg/kg
(§1) The PANDA Agent comprising a three valence and/or five valence antimony is generally effective in treating cancer in a subject, including an animal, at a dose at a wide range of dosages by intravenous injection and oral administration. In certain embodiments, dosage is from about 60 mg/kg to about 6000 mg/kg, preferably from about 60 mg/kg to about 3000 mg/kg, more preferably from about 120 mg/kg to about 3000 mg/kg, more preferably from about 120 mg/kg to about 1500 mg/kg, more preferably from about 150 mg/kg to about 1200 mg/kg, and more preferably from about 300 mg/kg to about 1200 mg/kg. In certain embodiments, the dose is about 600 mg/kg. In certain embodiments, the PANDA Agent is administered by intravenous or oral administration at 100 mg/ml concentration, at a dose of 600 mg/kg per day.
as §1, with “bismuth” for “antimony”, “embodiments, the daily” for “embodiments,”, “In certain embodiments, the dose is about 600 mg/kg. In certain embodiments, the PANDA Agent is administered by intravenous or oral administration at 100 mg/ml concentration, at a dose of 600 mg/kg per day.” left out

[2] = Representative effective dose in humans (Table 16); format: in vivo, human; conditions: oral
Source text: The PANDA Agent comprising a three and/or five valence arsenic is generally effective in treating cancer in a human at a wide range of dosages by intravenous injection and oral administration.
The PANDA Agent comprising a three and/or five valence antimony is generally effective in treating cancer in a human at a wide range of dosages by intravenous injection and oral administration. In certain embodiments, the effective dose results in a maximum Sb concentration in the patient's blood (plasma) from about 3.58 mg/L to about 357.5 mg/L, preferably from about 3.58 mg/L to about 179 mg/L, more preferably from about 7.15 mg/L to about 179 mg/L, more preferably from about 7.15 mg/L to about 107 mg/L, more preferably from about 12 mg/L to about 107 mg/L, more preferably from about 32.7 to about 38.8 mg/L. In certain embodiments, the daily dose is from about 20 mg/kg, wherein the maximum Sb concentration is from about 32.7 mg/L to about 38.8 mg/L, and wherein the platform Sb concentration in blood (plasma) is about 3.5 mg/L.
The PANDA Agent comprising a three and/or five valence bismuth is generally effective in treating cancer in a human at a wide range of dosages by intravenous injection and oral administration. In certain embodiments, the effective dose results in a maximum Bi concentration in the patient's blood (plasma) from about 3 mg/L to about 300 mg/L, preferably from about 3 mg/L to about 150 mg/L, more preferably from about 6 mg/L to about 150 mg/L, more preferably from about 6 mg/L to about 90 mg/L, more preferably from about 10 mg/L to about 90 mg/L, more preferably from about […]. In certain embodiments, the daily dose is from about 20 mg/kg, wherein the maximum Bi concentration is from about 32.7 mg/L to about 38.8 mg/L, and wherein the platform Bi concentration in blood (plasma) is about 3.5 mg/L.

[3] = system: APL patients; conditions: orally administrated; cited from earlier work
[4] = system: p53; experiment: Inductively coupled plasma mass spectroscopy (ICP-MS), arsenic per p53; format: binding
Source text: We further discovered that elemental arsenic, elemental bismuth, elemental antimony, and compounds containing elemental arsenic, bismuth, and/or antimony are good rescue compounds for mp53. […] The arsenic-, bismuth-, and antimony-mediated mp53 rescue is achieved by binding of the released arsenic, bismuth, and antimony to mp53. […] The arsenic-, bismuth-, and antimony-mediated mp53 rescue also elevates mp53 Tm. […] Moreover, these rescue compounds can also rescue one or more mp53s.

[5] = system: mp53; experiment: PAb1620 immunoprecipitation, structural rescuability of indicated mp53s (with/without ATO); format: cell-based, human; conditions: for Str. Res: Table 9, structurally rescuable by PANDA Agent ATO, label = mp53; for 1620 TP (PAb1620 immunoprecipitation efficiency): presence vs absence of ATO, cell line not indicated in this part of Table 9; for Str. Res. (whether the mp53 is structurally rescuable): Table 8, label = mp53 mutation, rescue agent ATO
Description: (§2) For p53 folding assay, H1299 cells transfected with indicated TP53 were treated with 1 μg/ml ATO for 2 hr, and cells were lysed followed by immunoprecipitation using PAb1620. Immunoprecipitated p53 was immunoblotted. Experiments are repeated twice. For p53 transcriptional activity assay, H1299 cells were co-transfected with indicated TP53 and PUMA reporter for 24 hr, followed by treatment of 1 μg/ml ATO for 24 hr. […] X-axis: PAb1620 IP efficiency; Y-axis: PUMA luciferase report signal. Hollow cycles: without ATO treatment; solid cycles: with ATO treatment.
NP40 buffer at room temperature.

[6] = system: mp53; experiment: Functional rescuability of indicated mp53s (Luciferase, qPCR and/or Western blot); format: cell-based, human; conditions: for Func. Res: Table 9, functionally rescuable by PANDA Agent ATO, label = mp53; for Func. Res. (whether the mp53 is functionally rescuable): Table 8, label = mp53 mutation, rescue agent ATO
Description: as §2
Cells were plated at a concentration of 2×10^4 cells/well in 24-well plates, followed by transfection of luciferase reporter plasmids for 24 hr. All transfection contained 300 ng p53 expressing plasmid, 100 ng of luciferase reporter plasmid and 5 ng of renilla plasmid per well. After agent treatment, cells were lysed in luciferase reporter assay buffer and determined using a luciferase assay kit (Promega). Activities of luciferase were divided by that of renilla to normalize the transfection efficiency.
Total RNA was isolated from cells using Total RNA Purification Kit (B518651, Sangon Biotech). 1 μg total RNA was reverse-transcribed using the GoScript®™ Reverse Transcriptase System (A5001, Promega) following manufacturer's protocol. PCR was performed in triplicate using SYBR green mix (Applied Biosystems), and a ViiA™ 7 Real-Time PCR System (Applied Biosystems) under the following conditions: 10 min at 95° C. followed by 40 cycles of 95° C. for 15 s and 60° C. for 1 min. Specificity of the PCR product was checked for each primer set and samples from the melting curve analysis. Expression levels of targeted genes were normalized relative to levels of β-actin adopting comparative Ct method. The primer sequences are as follows: MDM2 forward 5′-[…]-3′, reverse 5′-[…]-3′; PIG3 forward 5′-[…]-3′, reverse 5′-[…]-3′; PUMA forward 5′-[…]-3′, reverse 5′-[…]-3′; p21 forward 5′-[…]-3′, reverse 5′-[…]-3′; Bax forward 5′-[…]-3′, reverse 5′-[…]-3′; #-actin forward 5′-[…]-3′, reverse 5′-[…]-3′.

[7] = system: mp53; experiment: mp53 rescue profile (either structurally or functionally rescuable); format: cell-based, human; conditions: Table 8; label = mp53 mutation; rescue agent ATO
[8] = presence vs absence of ATO, cell line not indicated

| Molecule | Representative effective dose: Dose per day [1] | Maximun Metal concentration in blood (plasma) [2] | Platform Metal concentration in blood (plasma) [2] | Representative effective dose: Dose per day [2] | Str. Res [5] | 1620 TP (PAb1620 immunoprecipitation efficiency) [5] | Func. Res [6] | Luciferase Assay PUMA [6, 8] | also measured |
| --- | --- | --- | --- | --- | --- | --- | --- | --- | --- |
| S=[As][As]=S (centres unmarked) [As2S2] | 100 mg/kg | 0.57 to 1.31 mg/L | 0.03 to 0.07 mg/L | 2.80 mg/kg | – | – | – | – | – |
| S=[As]S[As]=S (centres unmarked) [As2S3] | 100 mg/kg | 0.57 to 1.31 mg/L | 0.03-0.07 L mg/L | 3.20 mg/kg | – | – | – | – | – |
| S=[As](=S)S[As](=S)=S [As2S5] | 100 mg/kg | – | – | 4.05 mg/kg | – | – | – | – | – |
| S1[As]2S[As]3S[As]2S[As]13 [As4S4, reference compound] | 100 mg/kg | 0.57 to 1.31 mg/L | 0.03 to 0.07 mg/L | 2.80 mg/kg | – | – | – | – | efficacy in treating APL patients (in words) [3]: as effective as conventional intravenous ATO |
| [AsH3] [arsenic] | – | – | – | – | – | – | – | – | arsenic bound per p53 (ICP-MS) [4]: 0.93±0.19 arsenic per p53 |
| D281H | – | – | – | – | Yes (can be rescured by the PANDA Agent ATO, as measured to a 1.5 fold or more increase in PAb1620 immunoprecipitation signal) | 2.1 fold | Yes (the PANDA Agent can rescue one or more of the mp53's wild type function to a 1.5 fold or more, as measured by luciferase assay, qPCR, or Western blot) | 2.2 fold | – |
| H179P | – | – | – | – | – | – | – | – | Res. (either structurally or functionally rescuable) [7]: Yes; Str. Res. (whether the mp53 is structurally rescuable) [5]: Yes; Func. Res. (whether the mp53 is functionally rescuable) [6]: Yes |
| H179R | – | – | – | – | Yes (can be rescured by the PANDA Agent ATO, as measured to a 1.5 fold or more increase in PAb1620 immunoprecipitation signal) | 4.6 fold | Yes (the PANDA Agent can rescue one or more of the mp53's wild type function to a 1.5 fold or more, as measured by luciferase assay, qPCR, or Western blot) | 1.8 fold | Luciferase Assay CDKNIA [6, 8]: 1.0 fold |
| R283H | – | – | – | – | Yes (can be rescured by the PANDA Agent ATO, as measured to a 1.5 fold or more increase in PAb1620 immunoprecipitation signal) | 1.6 fold | Yes (the PANDA Agent can rescue one or more of the mp53's wild type function to a 1.5 fold or more, as measured by luciferase assay, qPCR, or Western blot) | 1.6 fold | Res. (either structurally or functionally rescuable) [7]: Yes; Str. Res. (whether the mp53 is structurally rescuable) [5]: Yes; Func. Res. (whether the mp53 is functionally rescuable) [6]: Yes |
